Results: PubChem BioAssay (NCI)
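In this assay, cells in 96-well plates receive the compound at five concentrations for 48 hours. Endpoints are linearly interpolated between the surrounding concentrations. GI50 is the concentration that inhibits growth by half. TGI: total growth inhibition.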

Tests used:
Assay in all cases: DTP human tumour cell line panel, 48 h
[1] = tested on: 786-0 renal
[2] = tested on: A498 renal
[3] = tested on: A549 NSCLC
[4] = tested on: ACHN renal
[5] = tested on: BT-549 breast
[6] = tested on: CAKI-1 renal
[7] = tested on: CCRF-CEM leukemia
[8] = tested on: COLO 205 colon
[9] = tested on: DU-145 prostate
[10] = tested on: EKVX NSCLC
[11] = tested on: HCC-2998 colon
[12] = tested on: HCT-116 colon
[13] = tested on: HCT-15 colon
[14] = tested on: HL-60(TB) leukemia
[15] = tested on: HOP-62 NSCLC
[16] = tested on: HOP-92 NSCLC
[17] = tested on: HS 578T breast
[18] = tested on: HT29 colon
[19] = tested on: IGROV1 ovarian
[20] = tested on: K-562 leukemia
[21] = tested on: KM12 colon
[22] = tested on: LOX IMVI melanoma
[23] = tested on: M14 melanoma
[24] = tested on: MALME-3M melanoma
[25] = tested on: MCF7 breast
[26] = tested on: MDA-MB-231 breast
[27] = tested on: MDA-MB-435
[28] = tested on: MOLT-4 leukemia
[29] = tested on: NCI-H226 lung
[30] = tested on: NCI-H23 lung
[31] = tested on: NCI-H460 lung
[32] = tested on: NCI-H522 lung
[33] = tested on: NCI/ADR-RES ovarian
[34] = tested on: OVCAR-3 ovarian
[35] = tested on: OVCAR-4 ovarian
[36] = tested on: OVCAR-5 ovarian
[37] = tested on: OVCAR-8 ovarian
[38] = tested on: PC-3 prostate
[39] = tested on: RPMI-8226 leukemia
[40] = tested on: RXF 393 renal
[41] = tested on: SF-268 CNS
[42] = tested on: SF-295 CNS
[43] = tested on: SF-539 CNS
[44] = tested on: SK-MEL-2 melanoma
[45] = tested on: SK-MEL-28 melanoma
[46] = tested on: SK-MEL-5 melanoma
[47] = tested on: SK-OV-3 ovarian
[48] = tested on: SN12C renal
[49] = tested on: SNB-19 CNS
[50] = tested on: SNB-75 CNS
[51] = tested on: SR leukemia
[52] = tested on: SW-620 colon
[53] = tested on: T-47D breast
[54] = tested on: TK-10 renal
[55] = tested on: U251 CNS
[56] = tested on: UACC-257 melanoma
[57] = tested on: UACC-62 melanoma
[58] = tested on: UO-31 renal

CCOC(=O)c1sc(-c2ccc(OS(=O)(=O)c3ccc(Br)s3)c(C=O)c2)nc1C
GI50 [1]: 2.75 µM | TGI [1]: 8.16 µM | GI50 [2]: 6.15 µM | TGI [2]: 40.1 µM | GI50 [3]: 22.7 µM | TGI [3]: > 100 µM | GI50 [4]: 3.02 µM | TGI [4]: 9.05 µM | GI50 [5]: 2.51 µM | TGI [5]: 6.57 µM | GI50 [6]: 2.86 µM | TGI [6]: 14.5 µM | GI50 [7]: 2.36 µM | TGI [7]: 9.16 µM | GI50 [8]: 16.8 µM | TGI [8]: 33.8 µM | GI50 [9]: 6.81 µM | TGI [9]: 24.8 µM | GI50 [10]: 14.3 µM | TGI [10]: 54.1 µM | GI50 [11]: 13.3 µM | TGI [11]: 29.3 µM | GI50 [12]: 1.89 µM | TGI [12]: 3.95 µM | GI50 [13]: 2.61 µM | TGI [13]: 7.79 µM | GI50 [14]: 3.66 µM | TGI [14]: 19.7 µM | GI50 [15]: 3.3 µM | TGI [15]: 12.5 µM | GI50 [16]: 2.08 µM | TGI [16]: 6.87 µM | GI50 [17]: 10.6 µM | TGI [17]: 36.3 µM | GI50 [18]: 2.45 µM | TGI [18]: 6.43 µM | GI50 [19]: 3.31 µM | TGI [19]: 12.7 µM | GI50 [20]: 3.17 µM | TGI [20]: > 100 µM | GI50 [21]: 3.36 µM | TGI [21]: 11.6 µM | GI50 [22]: 2.9 µM | TGI [22]: 8.52 µM | GI50 [23]: 3.22 µM | TGI [23]: 11.3 µM | GI50 [24]: 4.08 µM | TGI [24]: 18.1 µM | GI50 [25]: 2.86 µM | TGI [25]: 8.97 µM | GI50 [26]: 2.75 µM | TGI [26]: 10.1 µM | GI50 [27]: 2.47 µM | TGI [27]: 6.79 µM | GI50 [28]: 2.73 µM | TGI [28]: 8.3 µM | GI50 [29]: 3.82 µM | TGI [29]: 23.1 µM | GI50 [30]: 3.37 µM | TGI [30]: 13.7 µM | GI50 [31]: 22.7 µM | TGI [31]: 58.6 µM | GI50 [32]: 2.96 µM | TGI [32]: 10.5 µM | GI50 [33]: 2.96 µM | TGI [33]: 12.9 µM | GI50 [34]: 2.48 µM | TGI [34]: 6.71 µM | GI50 [35]: 3.06 µM | TGI [35]: 9.85 µM | GI50 [36]: 10 µM | TGI [36]: 26.3 µM | GI50 [37]: 3.26 µM | TGI [37]: 16.5 µM | GI50 [38]: 2.97 µM | TGI [38]: 11 µM | GI50 [39]: 1.94 µM | TGI [39]: 5.18 µM | GI50 [40]: 2.81 µM | TGI [40]: 13.5 µM | GI50 [41]: 3.01 µM | TGI [41]: 13.2 µM | GI50 [42]: 5.08 µM | TGI [42]: 18.4 µM | GI50 [43]: 2.43 µM | TGI [43]: 6.16 µM | GI50 [44]: 4.83 µM | TGI [44]: 27.8 µM | GI50 [45]: 11.4 µM | TGI [45]: 33.4 µM | GI50 [46]: 1.74 µM | TGI [46]: 3.18 µM | GI50 [47]: 36.4 µM | TGI [47]: 97.1 µM | GI50 [48]: 3.09 µM | TGI [48]: 10.7 µM | GI50 [49]: 3.17 µM | TGI [49]: 12 µM | GI50 [50]: 1.6 µM | TGI [50]: 6.7 µM | GI50 [51]: 3.14 µM | TGI [51]: > 100 µM | GI50 [52]: 3.28 µM | TGI [52]: 12.8 µM | GI50 [53]: 2.77 µM | TGI [53]: 12.1 µM | GI50 [54]: 2.83 µM | TGI [54]: 8.96 µM | GI50 [55]: 2.68 µM | TGI [55]: 10.3 µM | GI50 [56]: 18.6 µM | TGI [56]: 64.7 µM | GI50 [57]: 2.21 µM | TGI [57]: 5.97 µM | GI50 [58]: 2.63 µM | TGI [58]: 9.76 µM
